Reference: US10508120B2, “TYK2 inhibitors and uses thereof” (Nimbus Lakshmi, Inc., priority 2017, dated 2019)

Biological target: human TYK2 (JH2domain-pseudokinase) (Homo sapiens (Human), UniProt P29597)
Experiment: TYK2 JH2 Domain Binding Assay (KINOMEscan)
Protocol: Binding constants for compounds of the present invention against the JH2 domain were determined by the following protocol for a KINOMEscan® assay (DiscoveRx). A fusion protein of a partial length construct of human TYK2 (JH2domain-pseudokinase) (amino acids G556 to D888 based on reference sequence NP_003322.3) and the DNA binding domain of NFkB was expressed in transiently transfected HEK293 cells. From these HEK 293 cells, extracts were prepared in M-PER extraction buffer (Pierce) in the presence of Protease Inhibitor Cocktail Complete (Roche) and Phosphatase Inhibitor Cocktail Set II (Merck) per manufacturers' instructions. The TYK2 (JH2domain-pseudokinase) fusion protein was labeled with a chimeric double-stranded DNA tag containing the NFkB binding site (5′-[…]-3′) fused to an amplicon for qPCR readout, which was added directly to the expression extract (the final concentration of DNA-tag in the binding reaction is 0.1 nM).
The liganded beads were blocked with excess biotin and washed with blocking buffer (SeaBlock (Pierce), 1% BSA, 0.05% Tween 20, 1 mM DTT) to remove unbound ligand and to reduce nonspecific binding.
Extracts were used directly in binding assays without any enzyme purification steps at a ≥10,000-fold overall stock dilution (final DNA-tagged enzyme concentration <0.1 nM). Extracts were loaded with DNA-tag and diluted into the binding reaction in a two step process. First extracts were diluted 1:100 in 1× binding buffer (PBS/0.05% Tween 20/10 mM DTT/0.1% BSA/2 μg/ml sonicated salmon sperm DNA) containing 10 nM DNA-tag. This dilution was allowed to equilibrate at room temperature for 15 minutes and then subsequently diluted 1:100 in 1× binding buffer. […] Kds were determined using an 11-point 3-fold compound dilution series with three DMSO control points. […] The compounds were then diluted directly into the assays such that the final concentration of DMSO was 0.9%. All reactions performed in polypropylene 384-well plates. Each was a final volume of 0.02 mL. Assays were incubated with shaking for 1 hour at room temperature. Then the beads were pelleted and washed with wash buffer (1×PBS, 0.05% Tween 20) to remove displaced kinase and test compound. […] The qPCR protocol consisted of a 10 minute hot start at 95° C., followed by 35 cycles of 95° C. for 15 seconds, 60° C. for 1 minute.
Kds were determined using an 11-point 3-fold compound dilution series with three DMSO control points. […] The compounds were then diluted directly into the assays such that the final concentration of DMSO was 0.9%. The Kds were determined using a compound top concentration of 30,000 nM. Kd measurements were performed in duplicate.
Binding constants (Kds) were calculated with a standard dose-response curve using the Hill equation: […]
The Hill Slope was set to −1.

human TYK2 (JH2domain-pseudokinase), sequence (P29597 556-888): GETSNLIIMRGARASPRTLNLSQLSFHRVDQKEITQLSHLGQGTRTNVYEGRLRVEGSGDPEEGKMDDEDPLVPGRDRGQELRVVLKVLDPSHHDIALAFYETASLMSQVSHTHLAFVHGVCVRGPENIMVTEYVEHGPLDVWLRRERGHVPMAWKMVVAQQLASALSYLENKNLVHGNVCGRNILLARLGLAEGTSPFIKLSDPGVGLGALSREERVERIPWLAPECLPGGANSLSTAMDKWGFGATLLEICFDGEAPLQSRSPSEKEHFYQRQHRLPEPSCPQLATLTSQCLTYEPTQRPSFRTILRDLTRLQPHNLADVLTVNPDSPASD

Row | Kd [nM] | Structure (SMILES)
1 | 1 to 10 | CNc1cc(-c2cn([C@H]3CCCOC3)c3ncccc23)nc2c(C(=O)N[C@H]3COC[C@H]3O)cnn12 (mixture of isomers) [I-1251, N-(4-hydroxytetrahydrofuran-3-yl)-7-(methylamino)-5-(1-((S)-tetrahydro-2H-pyran-3-yl)-1H-pyrrolo[2,3-b]pyridin-3-yl)pyrazolo[1,5-a]pyrimidine-3-carboxamide]
2 | < 0.2 | CNc1cc(-c2cn([C@@H]3CCCOC3)c3ncccc23)nc2c(C(=O)NC3CCC3O)cnn12 (mixture of isomers) [I-1257, N-(2-hydroxycyclobutyl)-7-(methylamino)-5-(1-((R)-tetrahydro-2H-pyran-3-yl)-1H-pyrrolo[2,3-b]pyridin-3-yl)pyrazolo[1,5-a]pyrimidine-3-carboxamide]
3 | 1 to 10 | CNc1cc(-c2cn([C@H]3CCC[C@@H]3OC)c3ncccc23)nc2c(C(=O)NC3CCC3O)cnn12 (mixture of isomers) [I-1340, N-(2-hydroxycyclobutyl)-5-(1-((1S,2S)-2-methoxycyclopentyl)-1H-pyrrolo[2,3-b]pyridin-3-yl)-7-(methylamino)pyrazolo[1,5-a]pyrimidine-3-carboxamide]
4 | > 10 | CNc1cc(-c2cn([C@@H]3CCC[C@H]3OC)c3ncccc23)nc2c(C(=O)NC3CCC3O)cnn12 (mixture of isomers) [I-1341, N-(2-hydroxycyclobutyl)-5-(1-((1R,2R)-2-methoxycyclopentyl)-1H-pyrrolo[2,3-b]pyridin-3-yl)-7-(methylamino)pyrazolo[1,5-a]pyrimidine-3-carboxamide]
5 | 0.2 to 1 | CNc1cc(Nc2cccn([C@H]3CCCOC3)c2=O)nc2c(C(=O)NC3CC3OC)cnn12 (mixture of isomers) [I-1415, N-(2-methoxycyclopropyl)-7-(methylamino)-5-((2-oxo-1-((S)-tetrahydro-2H-pyran-3-yl)-1,2-dihydropyridin-3-yl)amino)pyrazolo[1,5-a]pyrimidine-3-carboxamide]
6 | 0.2 to 1 | CNc1cc(Nc2cccn(C3CCOCC3)c2=O)nc2c(C(=O)N[C@H]3CCC[C@]3(C)O)cnn12 (stereo in doubt) [I-1254, N-(2-hydroxy-2-methylcyclopentyl)-7-(methylamino)-5-((2-oxo-1-(tetrahydro-2H-pyran-4-yl)-1,2-dihydropyridin-3-yl)amino)pyrazolo[1,5-a]pyrimidine-3-carboxamide]
7 | < 0.2 | CNc1cc(Nc2cccn(C3CCOCC3)c2=O)nc2c(C(=O)N[C@@H]3CCC[C@@](C)(OC)C3)cnn12 (stereo in doubt) [I-1274, N-(3-methoxy-3-methylcyclohexyl)-7-(methylamino)-5-((2-oxo-1-(tetrahydro-2H-pyran-4-yl)-1,2-dihydropyridin-3-yl)amino)pyrazolo[1,5-a]pyrimidine-3-carboxamide]
8 | < 0.2 | CNc1cc(Nc2cccn(C3CCOCC3)c2=O)nc2c(C(=O)N[C@@H]3CC[C@@H](OC)C3)cnn12 (stereo in doubt) [I-1334, N-(3-methoxycyclopentyl)-7-(methylamino)-5-((2-oxo-1-(tetrahydro-2H-pyran-4-yl)-1,2-dihydropyridin-3-yl)amino)pyrazolo[1,5-a]pyrimidine-3-carboxamide]
9 | < 0.2 | CNc1cc(-c2cn(C3CCOCC3)c3ncccc23)nc2c(C(=O)N[C@@H]3CCC[C@@H](O)C3)cnn12 (stereo in doubt) [I-1359, N-(3-hydroxycyclohexyl)-7-(methylamino)-5-(1-(tetrahydro-2H-pyran-4-yl)-1H-pyrrolo[2,3-b]pyridin-3-yl)pyrazolo[1,5-a]pyrimidine-3-carboxamide]
10 | 1 to 10 | CNc1cc(Nc2cc(C)nc(C)c2)nc2c(C(N)=O)cnn12 [I-13]
11 | 0.2 to 1 | CNc1cc(Nc2cc(Cl)cnc2O[C@@H]2CCOC2)nc2c(C(N)=O)cnn12 [I-84]
12 | 1 to 10 | NC(=O)c1cnn2c(N)cc(Nc3cc(Cl)cnc3O[C@@H]3CCOC3)nc12 [I-85]
13 | > 10 | CNc1cc(Nc2cccnc2OC(C)C)nc2c(C(=O)NC3COC3)cnn12 [I-86]
14 | > 10 | CNc1cc(Nc2cc(Cl)cnc2OC(C)C)nc2c(C(=O)NC3COC3)cnn12 [I-87]
15 | > 10 | CNc1cc(Nc2cccc(N3CCCC3=O)n2)nc2c(C(=O)NC3COC3)cnn12 [I-88]
16 | < 0.2 | CNc1cc(Nc2cccnc2OC)nc2c(C(=O)N[C@@H]3COC[C@@H]3O)cnn12 [I-519]
17 | 0.2 to 1 | CNc1cc(Nc2cccnc2OC2CC2)nc2c(C(=O)N[C@H]3COC[C@H]3O)cnn12 [I-520]
18 | < 0.2 | CNc1cc(Nc2cc(F)cn(C3CCCOC3)c2=O)nc2c(C(=O)N[C@@H]3C[C@@H]3F)cnn12 (stereo partly drawn) [I-521]
19 | 0.2 to 1 | CNc1cc(Nc2cc(C(F)(F)F)cn(-c3cnn(C)c3)c2=O)nc2c(C(=O)NC3CC3)cnn12 [I-523]
20 | 1 to 10 | CNc1cc(Nc2cccn([C@@H]3CCC[C@@H]3OC)c2=O)nc2c(C(=O)NC3CC3)cnn12 [I-524]
21 | > 10 | CNc1cc(Nc2cccn([C@H]3CCC[C@H]3OC)c2=O)nc2c(C(=O)NC3CC3)cnn12 [I-525]
22 | < 0.2 | CNc1cc(-c2cn([C@@H]3CCCOC3)c3ncccc23)nc2c(C(=O)N[C@@H]3COC[C@@H]3O)cnn12 [I-1184]
23 | 1 to 10 | CNc1cc(-c2cn([C@@H]3CCCOC3)c3ncccc23)nc2c(C(=O)N[C@H]3COC[C@H]3O)cnn12 [I-1185]

Row | Kd [nM] | Structure (SMILES)
24 | < 0.2 | CNc1cc(Nc2cccn([C@H]3C[C@@H]3OC)c2=O)nc2c(C(=O)N[C@@H]3CC[C@H]3OC)cnn12 [I-1186]
25 | < 0.2 | CNc1cc(Nc2cccn([C@H]3C[C@@H]3OC)c2=O)nc2c(C(=O)N[C@H]3CC[C@@H]3OC)cnn12 [I-1187]
26 | 1 to 10 | CNc1cc(Nc2cccn(-c3ccc(C)nc3)c2=O)nc2c(C(=O)N[C@H]3CCC[C@H](OC)C3)cnn12 [I-1188]
27 | < 0.2 | CNc1cc(Nc2cccn(-c3ccc(C)nc3)c2=O)nc2c(C(=O)N[C@@H]3CCC[C@@H](OC)C3)cnn12 [I-1189]
28 | < 0.2 | CNc1cc(Nc2cccn([C@@H]3CCC[C@H](O)C3)c2=O)nc2c(C(=O)N[C@@H]3CC[C@H]3OC)cnn12 [I-1190]
29 | < 0.2 | CNc1cc(Nc2cccn([C@@H]3CCC[C@H](O)C3)c2=O)nc2c(C(=O)N[C@H]3CC[C@@H]3OC)cnn12 [I-1191]
30 | < 0.2 | CNc1cc(Nc2cccn([C@H]3CCC[C@@H](O)C3)c2=O)nc2c(C(=O)N[C@@H]3CC[C@H]3OC)cnn12 [I-1192]
31 | < 0.2 | CNc1cc(Nc2cccn([C@H]3CCC[C@@H](O)C3)c2=O)nc2c(C(=O)N[C@H]3CC[C@@H]3OC)cnn12 [I-1193]
32 | < 0.2 | CNc1cc(Nc2cccn(C3CCOCC3)c2=O)nc2c(C(=O)N[C@H]3CC[C@H](OC)C3)cnn12 [I-1194]
33 | 1 to 10 | CNc1cc(Nc2cccn(C3CCOCC3)c2=O)nc2c(C(=O)N[C@@H]3CC[C@@H](OC)C3)cnn12 [I-1195]
34 | 0.2 to 1 | CNc1cc(Nc2cccn(C3CCOCC3)c2=O)nc2c(C(=O)N[C@@H]3CCCC[C@@]3(C)O)cnn12 [I-1196]
35 | < 0.2 | CNc1cc(Nc2cccn(C3CCOCC3)c2=O)nc2c(C(=O)N[C@H]3CCCC[C@]3(C)O)cnn12 [I-1197]
36 | < 0.2 | CNc1cc(Nc2cccn(C3CC(F)(F)C3)c2=O)nc2c(C(=O)N[C@@H]3CC[C@H]3O)cnn12 [I-1198]
37 | 0.2 to 1 | CNc1cc(Nc2cccn(C3CC(F)(F)C3)c2=O)nc2c(C(=O)N[C@H]3CC[C@@H]3O)cnn12 [I-1199]
38 | 0.2 to 1 | CNc1cc(Nc2cccn(C3CCOCC3)c2=O)nc2c(C(=O)N[C@H]3CCC[C@](C)(OC)C3)cnn12 [I-1200]
39 | 0.2 to 1 | CNc1cc(Nc2cccn(C3CCOCC3)c2=O)nc2c(C(=O)N[C@@H]3CCC[C@@](C)(OC)C3)cnn12 [I-1201]
40 | 1 to 10 | CNc1cc(Nc2cccn([C@H]3C[C@@H]3F)c2=O)nc2c(C(=O)N[C@@H]3CC[C@H](O)C3)cnn12 [I-1202]
41 | < 0.2 | CNc1cc(Nc2cccn([C@@H]3C[C@H]3F)c2=O)nc2c(C(=O)N[C@@H]3CC[C@H](O)C3)cnn12 [I-1203]
42 | < 0.2 | CNc1cc(Nc2cccn([C@H]3C[C@@H]3F)c2=O)nc2c(C(=O)N[C@H]3CC[C@@H]3OC)cnn12 [I-1204]
43 | < 0.2 | CNc1cc(Nc2cccn([C@@H]3C[C@H]3F)c2=O)nc2c(C(=O)N[C@H]3CC[C@@H]3OC)cnn12 [I-1205]
44 | 1 to 10 | CNc1cc(Nc2cccn(C3CC(F)(F)C3)c2=O)nc2c(C(=O)N[C@H]3COC[C@H]3O)cnn12 [I-1206]
45 | 1 to 10 | CNc1cc(Nc2cccn(C3CC(F)(F)C3)c2=O)nc2c(C(=O)N[C@@H]3CCC[C@@](C)(O)C3)cnn12 [I-1208]
